Literature values in patent US20040202718A1, “Dosage form for treatment of diabetes mellitus” (priority 2001, published 2004).
Counter-ions that a name gives are not always drawn.

Settings: clinical study disclosed in U.S. Pat. No. 5,922,769

For CN(C)C(=N)N=C(N)N [Metformin hydrochloride], the “maximum dose which does not cause any side-effects” value is given as 1500 mg/day.
